# Measurements: patent US20040103452A1, “Inducible apomixis” (priority 2001, published 2004)
# Test system: Arabidopsis thaliana Ler x transgenic WS (AtLTP1::AtSERK1) F1 plants
# Assay: SSLP analysis of F2 progeny for apomictic plants after 2,4-D application to F1 flower buds
# Format: in vivo
# Settings: flower buds dipped in 2 μM 2,4-D 1 to 2 days pre-anthesis, repeated twice
# Procedure: Transgenic T3 Arabidopsis thaliana ecotype WS plants, i.e. transgenic plants in the third generation after transformation, that are homozygous for the AtLTP1::AtSERK1 construct are used as male donor to pollinate Arabidopsis thaliana ecotype Landsberg erecta (L r) plants. The flower buds of the F1 plants at stage 11 to 12 (Smyth et al., The Plant Cell 2: 755, 1990) approximately 1 to 2 days pre-anthesis are dipped in an aqueous solution containing 2 μM 2,4-D supplemented with 0.04% (v/v) Triton X-100 as a surfactant as described by Vivian-Smith et al., (Plant Physiol. 121: 437, 1999). The treatment is repeated twice in a two-day period and plants are left to set F2 seeds. In parallel a control cross between wild-type Ler female and wild-type WS male plant is made to obtain F1 plants. Those F1 plants are designated as wild-type F1 plants and they are analysed in the same way as the transgenic F1 plants except that they are not auxin treated.
# The F2 seeds are grown into seedlings and a few rosette leaves from each plant are used for DNA extraction as described by Ponce et al., Mol. Gen. Genet. 261: 408, 1999. Simple Sequence Length Polymorphism (SSLP) analysis is carried out by simultaneous amplification of 11 SSLP markers (see Table 1) using multiplex PCR with fluorescently labeled primers as described by Ponce et al. supra. […]
compound,measurement,setting,value
"O=C(O)COc1ccc(Cl)cc1Cl [2, 4 D, 2,4-dichlorophenoxyacetic acid]",Plants h t rozygous for 11 SSLP markers Observed,"AtLTP::AtSERK1 cross No 14 (line with lower SERK1 level), 144 F2 plants analyzed",0
same,Plants h t rozygous for 11 SSLP markers Observed,"AtLTP::AtSERK1 cross No 15, 175 F2 plants analyzed",2
